Consider 17 compounds from US20250145609A1, “3-SUBSTITUTED PYRIDAZINE COMPOUNDS AS SMARCA2 AND/OR SMARCA4 DEGRADERS” (Aurigene Oncology Limited, priority 2022, published 2025).

One assay deals with T1, SMARCA2 (Homo sapiens, UniProt P51531).
T1 construct: endogenous in cells; host or cells: VCaP (ATCC CRL-2876)
Nature of the assay: SMARCA2 degradation in VCaP cells by Western blot. To be noted: at 100 nM, 16 hours. It counts as cell-based. On the procedure:
(§1) Example-P2: Determination of SMARCA2 and SMARCA4 Degradation in VCaP Cells by Western Blot
(§2) VCaP (ATCC CRL-2876) was plated in 6 well plates using complete Dulbecco's Modified Eagle's Medium. On the third day, compounds of present invention were added to cells from 10 mM stocks made in DMSO (Sigma Cat no. D2650). Each compound was tested at 100 nM concentration with DMSO not exceeding final percentage of 0.3 in the cells. Cells were incubated with the compound for 16 hours followed by harvesting with 1×RIPA lysis buffer (Thermo Fischer, catalogue number #89900) containing protease inhibitor cocktail (Sigma catalogue number #P-8340). Equal amount of protein was loaded on SDS PAGE gel for electrophoresis. Western blot was carried out for detection of either SMARCA2 (Cell signalling technologies, catalogue number #11966) or SMARCA4 antibody (Cell signalling technologies, catalogue number #52251). Beta-Tubulin antibody (Cell signalling technologies, catalogue number #86298) was used as loading control. Percentage of SMARCA2 or SMARCA4 degradation was calculated by using formula: […]
On the technique in general: In western blotting, separated proteins are transferred to a membrane and probed.

For another assay, the target named is T2, SMARCA4 (Homo sapiens, UniProt P51532).
T2 construct: endogenous in cells; host or cells: VCaP (ATCC CRL-2876)
Description: SMARCA4 degradation in VCaP cells by Western blot. To be noted: at 100 nM; for Percent SMARCA4 degradation at 0.1 µM: VCaP, 16 h; for Percent degradation SMARCA4: 16 hours. It counts as cell-based. The protocol: as §1, §2

SMILES strings stand for the structures.

T1 sequence (P51531 whole entry): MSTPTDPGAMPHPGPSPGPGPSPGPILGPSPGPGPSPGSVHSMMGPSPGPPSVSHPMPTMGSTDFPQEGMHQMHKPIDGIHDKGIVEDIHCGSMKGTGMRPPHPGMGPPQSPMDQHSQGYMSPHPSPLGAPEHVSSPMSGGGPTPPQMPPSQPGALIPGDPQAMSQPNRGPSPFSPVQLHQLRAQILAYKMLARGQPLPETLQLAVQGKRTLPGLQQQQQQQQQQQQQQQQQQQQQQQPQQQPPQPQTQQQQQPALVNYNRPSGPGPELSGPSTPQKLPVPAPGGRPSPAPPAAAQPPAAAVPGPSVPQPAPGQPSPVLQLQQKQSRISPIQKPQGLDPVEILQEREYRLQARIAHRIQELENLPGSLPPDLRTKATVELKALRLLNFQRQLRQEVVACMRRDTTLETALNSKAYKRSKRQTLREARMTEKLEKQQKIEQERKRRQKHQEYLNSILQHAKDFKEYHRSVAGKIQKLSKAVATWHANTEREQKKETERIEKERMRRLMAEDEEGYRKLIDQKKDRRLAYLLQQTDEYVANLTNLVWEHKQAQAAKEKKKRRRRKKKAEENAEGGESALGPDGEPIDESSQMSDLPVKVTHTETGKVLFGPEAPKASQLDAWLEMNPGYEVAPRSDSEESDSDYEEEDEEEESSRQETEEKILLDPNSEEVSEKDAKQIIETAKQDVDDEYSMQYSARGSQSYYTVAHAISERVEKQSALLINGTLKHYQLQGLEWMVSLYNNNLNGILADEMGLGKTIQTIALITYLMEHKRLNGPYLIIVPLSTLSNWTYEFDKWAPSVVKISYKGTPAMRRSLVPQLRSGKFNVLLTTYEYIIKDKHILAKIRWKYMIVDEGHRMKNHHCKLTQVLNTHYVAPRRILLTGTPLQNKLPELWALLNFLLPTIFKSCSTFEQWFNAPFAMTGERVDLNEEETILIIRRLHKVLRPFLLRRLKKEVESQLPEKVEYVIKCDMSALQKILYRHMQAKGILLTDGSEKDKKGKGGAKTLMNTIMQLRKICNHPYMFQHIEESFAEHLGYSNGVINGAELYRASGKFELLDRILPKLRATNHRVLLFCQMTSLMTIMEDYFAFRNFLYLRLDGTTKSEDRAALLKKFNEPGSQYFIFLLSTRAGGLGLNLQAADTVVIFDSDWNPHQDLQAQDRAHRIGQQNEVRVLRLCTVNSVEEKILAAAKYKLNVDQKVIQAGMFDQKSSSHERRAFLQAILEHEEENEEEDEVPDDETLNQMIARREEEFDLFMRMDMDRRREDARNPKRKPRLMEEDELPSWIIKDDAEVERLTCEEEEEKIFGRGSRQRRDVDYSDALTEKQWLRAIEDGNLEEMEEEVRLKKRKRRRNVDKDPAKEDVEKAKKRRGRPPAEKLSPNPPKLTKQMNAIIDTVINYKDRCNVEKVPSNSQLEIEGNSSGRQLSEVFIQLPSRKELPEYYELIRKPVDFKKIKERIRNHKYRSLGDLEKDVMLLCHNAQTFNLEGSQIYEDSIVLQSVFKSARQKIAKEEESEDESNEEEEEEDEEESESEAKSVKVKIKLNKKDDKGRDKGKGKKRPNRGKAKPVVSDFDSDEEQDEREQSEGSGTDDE
T2 sequence (P51532 whole entry): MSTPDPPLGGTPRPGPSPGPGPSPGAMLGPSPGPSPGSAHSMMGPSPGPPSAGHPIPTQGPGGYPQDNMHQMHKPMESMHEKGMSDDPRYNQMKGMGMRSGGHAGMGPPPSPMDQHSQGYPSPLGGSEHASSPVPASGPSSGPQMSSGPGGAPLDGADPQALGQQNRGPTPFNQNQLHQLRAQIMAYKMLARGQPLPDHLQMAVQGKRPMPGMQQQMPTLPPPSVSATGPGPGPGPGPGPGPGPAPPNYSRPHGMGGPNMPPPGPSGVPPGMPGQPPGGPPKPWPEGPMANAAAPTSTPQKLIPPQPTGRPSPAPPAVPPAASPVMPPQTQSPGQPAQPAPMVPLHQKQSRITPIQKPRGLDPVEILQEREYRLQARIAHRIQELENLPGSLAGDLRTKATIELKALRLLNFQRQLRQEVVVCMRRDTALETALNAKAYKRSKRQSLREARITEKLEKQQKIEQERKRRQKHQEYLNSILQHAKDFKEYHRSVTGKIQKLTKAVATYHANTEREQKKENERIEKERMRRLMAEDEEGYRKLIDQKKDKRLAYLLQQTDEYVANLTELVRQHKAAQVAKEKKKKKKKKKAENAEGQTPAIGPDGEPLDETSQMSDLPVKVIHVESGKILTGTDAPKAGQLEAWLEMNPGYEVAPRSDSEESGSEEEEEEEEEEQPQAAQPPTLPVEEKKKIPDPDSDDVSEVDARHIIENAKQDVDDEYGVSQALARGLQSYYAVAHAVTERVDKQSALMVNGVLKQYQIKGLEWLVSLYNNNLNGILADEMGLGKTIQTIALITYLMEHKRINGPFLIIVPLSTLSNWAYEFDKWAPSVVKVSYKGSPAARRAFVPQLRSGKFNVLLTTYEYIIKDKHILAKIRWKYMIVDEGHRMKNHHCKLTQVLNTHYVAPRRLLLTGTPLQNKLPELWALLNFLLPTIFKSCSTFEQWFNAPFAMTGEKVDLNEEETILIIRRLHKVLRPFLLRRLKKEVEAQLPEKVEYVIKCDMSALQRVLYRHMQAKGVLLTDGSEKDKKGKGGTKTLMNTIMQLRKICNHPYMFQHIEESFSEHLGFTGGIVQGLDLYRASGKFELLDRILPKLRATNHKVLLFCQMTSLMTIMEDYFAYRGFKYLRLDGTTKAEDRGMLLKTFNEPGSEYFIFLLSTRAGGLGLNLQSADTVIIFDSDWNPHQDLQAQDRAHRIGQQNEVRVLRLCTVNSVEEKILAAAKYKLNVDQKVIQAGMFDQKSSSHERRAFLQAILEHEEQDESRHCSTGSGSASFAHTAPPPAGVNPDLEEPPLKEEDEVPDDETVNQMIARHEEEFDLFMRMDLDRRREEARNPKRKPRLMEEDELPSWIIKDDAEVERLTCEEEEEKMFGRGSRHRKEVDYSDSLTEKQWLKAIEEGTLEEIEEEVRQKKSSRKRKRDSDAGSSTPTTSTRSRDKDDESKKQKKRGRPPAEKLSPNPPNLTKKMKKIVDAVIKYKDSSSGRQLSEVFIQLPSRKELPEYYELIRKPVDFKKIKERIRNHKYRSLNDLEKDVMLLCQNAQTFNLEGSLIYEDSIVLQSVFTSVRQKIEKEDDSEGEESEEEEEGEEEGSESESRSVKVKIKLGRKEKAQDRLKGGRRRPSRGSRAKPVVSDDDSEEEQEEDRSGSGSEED

For `Cc1ncsc1-c1ccc([C@H](C)NC(=O)[C@@H]2C[C@@H](O)CN2C(=O)[C@@H](NC(=O)C(C)N2CCC(c3ccc(-c4cc(-c5ccccc5O)nnc4N)cc3)CC2)C(C)(C)C)cc1` (single isomer, unassigned) [Compound 33], at SMARCA2, the “Percent degradation SMARCA2” value turned out to be 42%. This compound also returned a Percent SMARCA4 degradation at 0.1 µM at SMARCA4 of 0%.

Take `Cc1ncsc1-c1ccc([C@H](C)NC(=O)[C@@H]2C[C@@H](O)CN2C(=O)[C@@H](NC(=O)CN2CCC(c3ccc(-c4cc(-c5ccccc5O)nnc4N)cc3)CC2C)C(C)(C)C)cc1` (single isomer, unassigned) [Compound 37]: the “Percent degradation SMARCA2” value on SMARCA2 turned out to be 100%. The “Percent degradation SMARCA4” value on SMARCA4 is 97%.

As to `Cc1ncsc1-c1ccc([C@H](C)NC(=O)[C@@H]2C[C@@H](O)CN2C(=O)[C@@H](NC(=O)C2CCC(c3ccc(-c4cc(-c5ccccc5O)nnc4N)cc3)CC2)C(C)(C)C)cc1` (single isomer, unassigned) [Compound 41], the “Percent degradation SMARCA2” value at SMARCA2 came out at 92%. Also, the “Percent degradation SMARCA4” value on SMARCA4 was determined as 52%.

With `Cc1ncsc1-c1ccc([C@H](C)NC(=O)[C@@H]2C[C@@H](O)CN2C(=O)[C@@H](NC(=O)CC2CCC(c3ccc(-c4cc(-c5ccccc5O)nnc4N)cc3)CC2)C(C)(C)C)cc1` (single isomer, unassigned) [Compound 45], on SMARCA2, the “Percent degradation SMARCA2” value turned out to be 97%. Also, the “Percent degradation SMARCA4” value on SMARCA4 stood at 92%.

As for `Cc1ncsc1-c1ccc([C@H](C)NC(=O)[C@@H]2C[C@@H](O)CN2C(=O)C(c2cc(-c3ccc(-c4cc(-c5ccccc5O)nnc4N)cc3)no2)C(C)C)cc1` (stereo partly drawn) [Compound 4, (2S,4R)-1-(2-(3-(4-(3-amino-6-(2-hydroxyphenyl)pyridazin-4-yl)phenyl)isoxazol-5-yl)-3-methylbutanoyl)-4-hydroxy-N—((S)-1-(4-(4-methylthiazol-5-yl)phenyl)ethyl)pyrrolidine-2-carboxamide], the “Percent degradation SMARCA2” value on SMARCA2 stood at 98%. Also, the Percent SMARCA4 degradation at 0.1 µM on SMARCA4 was 11%.

For `Cc1ncsc1-c1ccc([C@H](C)NC(=O)[C@@H]2C[C@@H](O)CN2C(=O)[C@H](c2cc(-c3ccc(-c4cc(-c5ccccc5O)nnc4N)cc3)no2)C(C)C)cc1` [Compound 5, (2S,4R)-1-((S)-2-(3-(4-(3-amino-6-(2-hydroxyphenyl)pyridazin-4-yl)phenyl)isoxazol-5-yl)-3-methylbutanoyl)-4-hydroxy-N—((S)-1-(4-(4-methylthiazol-5-yl)phenyl)ethyl)pyrrolidine-2-carboxamide], the “Percent degradation SMARCA2” value on SMARCA2 worked out at 57%. The compound further gave a Percent SMARCA4 degradation at 0.1 µM at SMARCA4 of 62%.

On to `Cc1ncsc1-c1ccc([C@H](C)NC(=O)[C@@H]2C[C@@H](O)CN2C(=O)C(c2cc(-c3ccc(-c4cc(-c5ccccc5C(F)F)nnc4N)cc3)no2)C(C)C)cc1` (stereo partly drawn) [Compound 8, (2S,4R)-1-(2-(3-(4-(3-amino-6-(2-(difluoromethyl)phenyl)pyridazin-4-yl)phenyl)isoxazol-5-yl)-3-methylbutanoyl)-4-hydroxy-N-((S)-1-(4-(4-methylthiazol-5-yl)phenyl)ethyl)pyrrolidine-2-carboxamide], for which the “Percent degradation SMARCA2” value at SMARCA2 amounted to 0%. The same compound returned a Percent SMARCA4 degradation at 0.1 µM on SMARCA4 of 18%.

`Cc1ncsc1-c1ccc([C@H](C)NC(=O)[C@@H]2C[C@@H](O)CN2C(=O)C(c2cc(-c3ccc(-c4cc(-c5ccccc5F)nnc4N)cc3)no2)C(C)C)cc1` (stereo partly drawn) [Compound 9, (2S,4R)-1-(2-(3-(4-(3-amino-6-(2-fluorophenyl)pyridazin-4-yl)phenyl)isoxazol-5-yl)-3-methylbutanoyl)-4-hydroxy-N-((S)-1-(4-(4-methylthiazol-5-yl)phenyl)ethyl)pyrrolidine-2-carboxamide]: the “Percent degradation SMARCA2” value on SMARCA2 turned out to be 30%. Also, the Percent SMARCA4 degradation at 0.1 µM on SMARCA4 is 62%.

As to `Cc1ncsc1-c1ccc([C@H](C)NC(=O)[C@@H]2C[C@@H](O)CN2C(=O)[C@@H](NC(=O)CN2CCN(c3ccc(-c4cc(Cl)nnc4N)cc3)CC2)C(C)(C)C)cc1` [Compound 13, (2S,4R)-1-((S)-2-(2-(4-(4-(3-amino-6-chloropyridazin-4-yl)phenyl)piperazin-1-yl)acetamido)-3,3-dimethylbutanoyl)-4-hydroxy-N—((S)-1-(4-(4-methylthiazol-5-yl)phenyl)ethyl)pyrrolidine-2-carboxamide], the “Percent degradation SMARCA2” value on SMARCA2 is reported as 27%. The Percent SMARCA4 degradation at 0.1 µM at SMARCA4 was 38%.

For the compound `COc1ncccc1-c1cc(-c2ccc(N3CCN(CC(=O)N[C@H](C(=O)N4C[C@H](O)C[C@H]4C(=O)N[C@@H](C)c4ccc(-c5scnc5C)cc4)C(C)(C)C)CC3)cc2)c(N)nn1` [Compound 15, (2S,4R)-1-((S)-2-(2-(4-(4-(3-amino-6-(2-methoxypyridin-3-yl)pyridazin-4-yl)phenyl)piperazin-1-yl)acetamido)-3,3-dimethylbutanoyl)-4-hydroxy-N—((S)-1-(4-(4-methylthiazol-5-yl)phenyl)ethyl)pyrrolidine-2-carboxamide], the “Percent degradation SMARCA2” value on SMARCA2 came to 8%. Besides, the Percent SMARCA4 degradation at 0.1 µM at SMARCA4 came to 16%.

In the case of `Cc1ncsc1-c1ccc([C@H](C)NC(=O)[C@@H]2C[C@@H](O)CN2C(=O)C(c2cc(-c3ccc(-c4cc(-c5ccc[nH]c5=O)nnc4N)cc3)no2)C(C)C)cc1` (stereo partly shown) [Compound 17], on SMARCA2, the “Percent degradation SMARCA2” value is 7%. Moreover, the “Percent degradation SMARCA4” value at SMARCA4 was 35%.

As to `Cc1ncsc1-c1ccc([C@H](C)NC(=O)[C@@H]2C[C@@H](O)CN2C(=O)[C@@H](NC(=O)CCN2CCN(c3ccc(-c4cc(-c5ccccc5O)nnc4N)cc3)CC2)C(C)(C)C)cc1` [Compound 18, (2S,4R)-1-((S)-2-(3-(4-(4-(3-amino-6-(2-hydroxyphenyl)pyridazin-4-yl)phenyl)piperazin-1-yl)propanamido)-3,3-dimethylbutanoyl)-4-hydroxy-N—((S)-1-(4-(4-methylthiazol-5-yl)phenyl)ethyl)pyrrolidine-2-carboxamide], the “Percent degradation SMARCA2” value on SMARCA2 was determined as 98%. In addition, the Percent SMARCA4 degradation at 0.1 µM on SMARCA4 was 93%.

Take `Cc1ncsc1-c1ccc([C@H](C)NC(=O)[C@@H]2C[C@@H](O)CN2C(=O)[C@@H](NC(=O)CCC#Cc2ccc(-c3cc(-c4ccccc4O)nnc3N)cc2)C(C)(C)C)cc1` [Compound 20, (2S,4R)-1-((S)-2-(5-(4-(3-amino-6-(2-hydroxyphenyl)pyridazin-4-yl)phenyl)pent-4-ynamido)-3,3-dimethylbutanoyl)-4-hydroxy-N-((S)-1-(4-(4-methylthiazol-5-yl)phenyl)ethyl)pyrrolidine-2-carboxamide]: the “Percent degradation SMARCA2” value at SMARCA2 is 98%. Further, at SMARCA4, the Percent SMARCA4 degradation at 0.1 µM was determined as 97%.

`Cc1ncsc1-c1ccc([C@H](C)NC(=O)[C@@H]2C[C@@H](O)CN2C(=O)[C@@H](NC(=O)CC#Cc2ccc(-c3cc(Cl)nnc3N)cc2)C(C)(C)C)cc1` [Compound 22, (2S,4R)-1-((S)-2-(4-(4-(3-amino-6-chloropyridazin-4-yl)phenyl)but-3-ynamido)-3,3-dimethylbutanoyl)-4-hydroxy-N-((S)-1-(4-(4-methylthiazol-5-yl)phenyl)ethyl)pyrrolidine-2-carboxamide]: on SMARCA2, the “Percent degradation SMARCA2” value is listed as 2%. Also, the Percent SMARCA4 degradation at 0.1 µM at SMARCA4 was 7%.

For `Cc1ncsc1-c1ccc([C@H](C)NC(=O)[C@@H]2C[C@@H](O)CN2C(=O)[C@@H](NC(=O)CCCC#Cc2ccc(-c3cc(-c4cc(F)ccc4O)nnc3N)cc2)C(C)(C)C)cc1` [Compound 23, (2S,4R)-1-((S)-2-(6-(4-(3-amino-6-(5-fluoro-2-hydroxyphenyl)pyridazin-4-yl)phenyl)hex-5-ynamido)-3,3-dimethylbutanoyl)-4-hydroxy-N-((S)-1-(4-(4-methylthiazol-5-yl)phenyl)ethyl)pyrrolidine-2-carboxamide], the “Percent degradation SMARCA2” value on SMARCA2 is given as 82%. This compound gave a Percent SMARCA4 degradation at 0.1 µM on SMARCA4 of 49%.

For `Cc1ncsc1-c1ccc([C@H](C)NC(=O)[C@@H]2C[C@@H](O)CN2C(=O)[C@@H](NC(=O)CN2CCN(c3ccc(-c4cc(-c5ccccc5F)nnc4N)cc3)CC2)C(C)(C)C)cc1` [Compound 27, (2S,4R)-1-((S)-2-(2-(4-(4-(3-amino-6-(2-fluorophenyl)pyridazin-4-yl)phenyl)piperazin-1-yl)acetamido)-3,3-dimethylbutanoyl)-4-hydroxy-N—((S)-1-(4-(4-methylthiazol-5-yl)phenyl)ethyl)pyrrolidine-2-carboxamide], the “Percent degradation SMARCA2” value on SMARCA2 is reported as 59%. Further, on SMARCA4, the Percent SMARCA4 degradation at 0.1 µM turned out to be 47%.

As for `Cc1ncsc1-c1ccc([C@H](C)NC(=O)[C@@H]2C[C@@H](O)CN2C(=O)[C@@H](NC(=O)CN2CCC(c3cccc(-c4cc(-c5ccccc5O)nnc4N)c3)CC2)C(C)(C)C)cc1` [Compound 46, (2S,4R)-1-((S)-2-(2-(4-(3-(3-amino-6-(2-hydroxyphenyl)pyridazin-4-yl)phenyl)piperidin-1-yl)acetamido)-3,3-dimethylbutanoyl)-4-hydroxy-N-((S)-1-(4-(4-methylthiazol-5-yl)phenyl)ethyl)pyrrolidine-2-carboxamide], the “Percent degradation SMARCA2” value at SMARCA2 was 98%. At SMARCA4, the Percent SMARCA4 degradation at 0.1 µM came to 96%.
